# Data reported in US5891842A, “Methodology for eliciting an analgesic response in a living subject” (priority 1996, dated 1999).
# Read-outs that look alike come from different tables or passages of the source.
# Experiments:
# [1] = cited from earlier work
# [2] = oral, antitussive doses, cited from earlier work; for DOSE (figures in parentheses): not necessarily equieffective
# [3] = tested on: Adult male Sprague-Dawley rats; test: Tail-flick analgesic testing after intrathecal administration; type: in vivo, rat
# [4] = tested on: rats with spinal cord transection; test: Tail-flick analgesic testing after intrathecal administration, acutely transected spinal cord; type: in vivo, rat; details: 0.2 ug MS alone
# [5] = 10 mg/70 kg body weight; cited from earlier work
# [6] = intrathecal administration of morphine; cited from earlier work
# [7] = analgesic effects after subcutaneous administration
Compound,"DURATION OF ACTION [1, 7]","DOSE: amount given subcutaneously that produces approximately the same analgesic effects as 10 mg of morphine ([1]; in vivo, sc)",also measured
"CCC(=O)OC1(c2ccccc2)CCN(C)CC1C (stereo not shown) [Alphaaprodine, Alphaprodine]",1 to 2 h,40,–
"CN1CC[C@]23c4c5ccc(O)c4O[C@H]2C(=O)CC[C@@]3(O)[C@H]1C5 [Oxymorphone, dihydrohydroxymorphinone]",4 to 5 h,1.0-1.5,–
CCC(=O)C(CC(C)N1CCOCC1)(c1ccccc1)c1ccccc1 (stereo not shown) [Phenadoxone],1 to 3 h,10-20,–
CN1CC[C@]23CCCC[C@H]2[C@H]1Cc1ccc(O)cc13 [Levorphanol],4 to 5 h,2,–
"COc1ccc2c3c1O[C@H]1C(=O)CC[C@H]4[C@@H](C2)N(C)CC[C@]314 [Hyrocodone, dihydrocodeinone]",–,–,DURATION OF ACTION (figures in parentheses) [2]: 4 to 8 h; DOSE (figures in parentheses) [2]: 5 to 10 mg
CCC(=O)C(CC(C)N(C)C)(c1ccccc1)c1ccccc1 (stereo not shown) [Methadone],3 to 5 h,8-10,–
COc1ccc2c3c1O[C@H]1[C@@H](O)C=C[C@H]4[C@@H](C2)N(C)CC[C@@]341 [Codeine],–,120,DURATION OF ACTION (figures in parentheses) [2]: 4 to 6 h; DOSE (figures in parentheses) [2]: 10 to 20 mg
CCOC(=O)C1(c2ccccc2)CCN(C)CC1 [Meperidine],2 to 4 h,75-100,–
"CN1CC[C@]23c4c5ccc(O)c4O[C@H]2[C@@H](O)C=C[C@H]3[C@H]1C5.O=S(=O)(O)O [MS, morphine sulphate]",–,–,"analgesic response ([3]; 0.02 ug MS alone, intrathecal): weak response; analgesic response, peak ([3]; 0.1 ug MS alone, intrathecal): approximately 30 % MPE; analgesic response ([3]; 0.5 ug MS alone, intrathecal): maximal analgesic response between 5 and 30 min; declined to baseline ([3]; 0.5 ug MS alone, intrathecal): 60 min; analgesic response [4]: modest analgesic response"
C[C@H](CN1CCOCC1)C(C(=O)N1CCCC1)(c1ccccc1)c1ccccc1 [Dextromoramide],4 to 5 h,5-7.5,–
"CN1CC[C@]23c4c5ccc(OCCN6CCOCC6)c4O[C@H]2[C@@H](O)C=C[C@H]3[C@H]1C5 [Pholcodine, β-morpholinylethylmorphine]",–,–,DURATION OF ACTION (figures in parentheses) [2]: 4 to 5 h; DOSE (figures in parentheses) [2]: 5 to 15 mg
CCC(=O)C(CC(C)N1CCCCC1)(c1ccccc1)c1ccccc1 (stereo not shown) [Dipipanone],4 to 5 h,20-25,–
C=CCN1CC[C@]23c4c5ccc(O)c4O[C@H]2C(=O)CC[C@@]3(O)[C@H]1C5 [naloxone],–,–,analgesic response produced by MS in combination with SP after naloxone pretreatment ([3]; naloxone 1.0 ug intrathecal 10 min prior to 0.1 ug MS + 10 pmol SP): essentially eliminated
"COc1ccc2c3c1O[C@H]1[C@@H](O)CC[C@H]4[C@@H](C2)N(C)CC[C@@]341 [Drocode, dihydrocodeine]",4 to 5 h,60,–
"COc1ccc2c3c1O[C@H]1C(=O)CC[C@@]4(O)[C@@H](C2)N(C)CC[C@]314 [Oxycodone, dihydrohydroxycodeinone]",4 to 5 h,10-15,–
CN1CC[C@]23c4c5ccc(O)c4O[C@H]2[C@@H](O)C=C[C@H]3[C@H]1C5 [Morphine],–,10,"DURATION OF ACTION ([1]; in vivo, sc): 4-5; relieves post-operative pain satisfactorily (share of patients) [5]: about two-thirds; effect on hyperalgesia of administered substance P [6]: blocks the hyperalgesic effects"
"CC(=O)Oc1ccc2c3c1O[C@H]1[C@@H](OC(C)=O)C=C[C@H]4[C@@H](C2)N(C)CC[C@@]341 [Heroin, diacetylmorphine]",3 to 4 h,4,DOSE (figures in parentheses) [2]: 2 to 8 mg
